Experimental data: paper PMC8979682, “Synthesis, Antioxidant, and Antidiabetic Activities of Ketone Derivatives of Succinimide” (Evidence-based Complementary and Alternative Medicine : eCAM, 2022)
Converted amounts (≈) assume the structure as drawn.

Assays:
ABTS scavenging activity = assay type: biochemical
Experimental: For the determination of the antioxidant activity of the synthesized compounds, the previously reported method for ABTS scavenging activity was used with slight modification. The stock solution of 2.4 mM of potassium per sulfate solution and 7 mM ABTS solution was prepared by mixing them in equal volumes for 16 h. The stock solution thus prepared was diluted using methyl alcohol to give absorption of 0.7 ± 0.02 units when studied at the wavelength of 734 nm using a spectrophotometer. Fresh ABTS solution was prepared for each ABTS scavenging assay. About 150 μL of the ABTS working solution was added to 50 μL of synthesized compounds and kept in darkness for 10 min. […] Methanol was used as blank, and standard ascorbic acid was run at the same time. The absorbance was calculated utilizing a microplate reader at 734 nm.

DPPH scavenging activity = assay type: biochemical
Experimental: The antioxidant assay of the synthesized compounds was conducted following the previously reported method. A freshly prepared DPPH solution (50 μL of 1.0 × 10^−3 M) was added in methyl alcohol. Methanol was used as a control in this experiment. The prepared mixture was subjected to incubation at 25°C for 30 min. A decrease in the DPPH free radical concentration was calculated using a spectrophotometer at a wavelength of 517 nm. After incubation ascorbic acid was used as a positive control. The antioxidant activity was determined as a percent (%) of inhibition using the formula given:(1) percent inhibition=absorbancecontrol−absorbancesample/absorbancecontrol×100.

α-amylase = assay: in vitro α-amylase inhibition; assay type: biochemical
Experimental: The starch solution was added, following incubation of the mixture, and the reaction mixture thus prepared was kept in water bath at 100°C for some time. Microplate reader measured the intensity of the color at 656 nm. Following formula was used to determine percentage inhibition:(3) percent inhibition=absorbancecontrol−absorbancesample/absorbancecontrol×100.

mice = assay: oral glucose tolerance test (OGTT); assay type: in vivo; settings: glucose 2 g/kg orally
Experimental: To perform OGTT mice fasted overnight were used including both control and treated mice. Glucose was administered orally at the dose of 2 g/kg against glibenclamide as standard drug. After administration of glucose, blood glucose level was calculated at time intervals of 0, 30, 60, and 120 min for assessment of the impact of exogenously given D-glucose on treated mice. OGTT was carried out 5 days before the completion of the study.
To perform OGTT, mice fasted overnight were used including both control and treated mice. Glucose was administered orally at the dose of 2 g/kg against glibenclamide as a standard drug. After administration of glucose, blood glucose level was calculated at time intervals of 0, 30, 60, and 120 min for assessment of the impact of exogenously given D-glucose on treated mice.

α-glucosidase = assay: in vitro α-glucosidase inhibition; assay type: biochemical
Experimental: For in vitro α-glucosidase activity, samples were prepared by adding glucopyranoside to phosphate buffer solvent, and different concentrations of the synthesized compounds (31.25, 62.5, 125, 250, and 500 µg/ml), respectively, were added to this solution and then the enzyme glucosidase in distilled water (0.5 µg/ml) was also added to the above mixture. The reaction mixture thus prepared was subjected to incubation at 37°C for 20 minutes. The reaction was halted by adding HCl after incubation of the mixture. The intensity of the color was determined at 540 nm by spectrophotometer, and the formula given below was used for the determination of percent inhibition:(2) percent inhibition=absorbancecontrol−absorbancesample/absorbancecontrol×100.

[1] = tested on: diabetic mice (by alloxan); assay: antidiabetic activity in diabetic mice (by alloxan); assay type: in vivo
Experimental: Alloxan was used for the induction of diabetes mellitus according to reported procedure. Recently prepared Alloxan (ALX) was injected intraperitoneally to animals, fasting for 16 h, at a single dose of (150 mg/kg). […] Only diabetic animals, having random blood glucose level more than 200 mg/dl, were selected for studies. All the experimental procedure were approved from the ethical committee department of pharmacy, University of Swabi via letter No; UOS-06/2021.
A total of 30 animals were used to determine the hypoglycemic effect of the synthesized derivatives of succinimide. The experimental animals were segregated in six groups […], having five (5) animals in each group. Group I was designated as normal group and was given normal saline I/P only. Group II was given Tween 80, and Group III was given standard drug (glibenclamide) after the induction of diabetes. Group IV, Group V, and Group VI were given the various doses of synthesized compounds, respectively. […]

## O=C1CCCCC1C1CC(=O)N(c2ccccc2)C1=O (stereo not drawn) [BW1, (2-Oxocyclohexyl)-1-Phenylpyrrolidine-2,5-Dione]
ABTS scavenging activity
  IC50 (ABTS): 9.40 µg/mL (≈ 34.6 µM)
ABTS scavenging activity; 31.25 µg/ml
  (%) ABTS inhibitions: 55.67 ± 0.32^∗∗∗ %
ABTS scavenging activity; 62.50 µg/ml
  (%) ABTS inhibitions: 66.16 ± 0.16^∗∗∗ %
ABTS scavenging activity; 125 µg/ml
  (%) ABTS inhibitions: 70.62 ± 0.25^∗∗∗ %
ABTS scavenging activity; 250 µg/ml
  (%) ABTS inhibitions: 73.36 ± 0.84^∗∗∗ %
ABTS scavenging activity; 500 µg/ml
  (%) ABTS inhibitions: 78.35 ± 0.23^∗∗∗ %
DPPH scavenging activity
  IC50 (DPPH): 10.84 µg/mL (≈ 40 µM)
DPPH scavenging activity; 31.25 µg/ml
  (%) DPPH inhibitions: 62.03 ± 0.77^∗∗∗ %
DPPH scavenging activity; 250 µg/ml
  (%) DPPH inhibitions: 77.23 ± 0.96^∗∗∗ %
DPPH scavenging activity; 500 µg/ml
  (%) DPPH inhibitions: 85.83 ± 0.47^∗∗ %
α-amylase
  IC50 (α-amylase): 13.90 µg/mL (≈ 51.2 µM)
α-amylase; 31.25 µg/ml
  % inhibitions (α-amylase): 57.40 ± 0.40^∗∗∗ %
α-amylase; 62.50 µg/ml
  % inhibitions (α-amylase): 65.08 ± 0.66^∗∗∗ %
α-amylase; 125 µg/ml
  % inhibitions (α-amylase): 71.78 ± 0.44^∗∗∗ %
α-amylase; 250 µg/ml
  % inhibitions (α-amylase): 75.32 ± 0.40^∗∗∗ %
α-amylase; 500 µg/ml
  % inhibitions (α-amylase): 81.60 ± 0.00^∗∗∗ %
mice
  OGTT blood glucose, 0 minutes: 165.8 mg/dL
  OGTT blood glucose, 30 minutes: 194.4 mg/dL
  OGTT blood glucose, 60 minutes: 211.8 mg/dL
  OGTT blood glucose, 120 minutes: 160.3 mg/dL
α-glucosidase
  IC50 (α-glucosidase): 10.49 µg/mL (≈ 38.7 µM)
α-glucosidase; 31.25 µg/ml
  % inhibitions (α-glucosidase): 65.80 ± 0.90^ns %
α-glucosidase; 62.50 µg/ml
  % inhibitions (α-glucosidase): 70.40 ± 0.20^ns %
α-glucosidase; 125 µg/ml
  % inhibitions (α-glucosidase): 76.58 ± 0.63^ns %
α-glucosidase; 250 µg/ml
  % inhibitions (α-glucosidase): 83.45 ± 0.90^ns %
α-glucosidase; 500 µg/ml
  % inhibitions (α-glucosidase): 89.08 ± 1.04^ns %
[1]; dose 31.25 μg/kg
  Change in body weight: +2.3 Gm
  Blood glucose level, 0 day: 418 mg/dL
  Blood glucose level, 4th day: 408 mg/dL
  Blood glucose level, 7th day: 399 mg/dL
  Blood glucose level, 10th day: 382 mg/dL
  Blood glucose level, 15th day: 375 mg/dL
[1]; dose 62.5 μg/kg
  Change in body weight: +4.3 Gm
  Decrease in blood glucose after 15 days: 34 mg/dL
  Blood glucose level, 0 day: 380 mg/dL
  Blood glucose level, 4th day: 371 mg/dL
  Blood glucose level, 7th day: 365 mg/dL
  Blood glucose level, 10th day: 351 mg/dL
  Blood glucose level, 15th day: 346 mg/dL
[1]; dose 125 μg/kg
  Change in body weight: +4.1 Gm
  Decrease in blood glucose after 15 days: 49 mg/dL
  Blood glucose level, 0 day: 443 mg/dL
  Blood glucose level, 4th day: 431 mg/dL
  Blood glucose level, 7th day: 413 mg/dL
  Blood glucose level, 10th day: 401 mg/dL
  Blood glucose level, 15th day: 394 mg/dL
[1]; dose 250 μg/kg
  Change in body weight: +5.7 Gm
  Decrease in blood glucose after 15 days: 207 mg/dL
  Blood glucose level, 0 day: 421 mg/dL
  Blood glucose level, 4th day: 397 mg/dL
  Blood glucose level, 7th day: 345 mg/dL
  Blood glucose level, 10th day: 219 mg/dL
  Blood glucose level, 15th day: 214 mg/dL
[1]; dose 500 μg/kg
  Change in body weight: +7.1 Gm
  Decrease in blood glucose after 15 days: 121 mg/dL
  Blood glucose level, 0 day: 412 mg/dL
  Blood glucose level, 4th day: 388 mg/dL
  Blood glucose level, 7th day: 372 mg/dL
  Blood glucose level, 10th day: 312 mg/dL
  Blood glucose level, 15th day: 291 mg/dL

## O=C1CCCCC1C1CC(=O)N(Cc2ccccc2)C1=O (stereo not drawn) [BW2, Benzyl-3-(2-Oxocyclohexyl) Pyrrolidine-2,5-Dione]
ABTS scavenging activity
  IC50 (ABTS): 12.87 µg/mL (≈ 45.1 µM)
ABTS scavenging activity; 31.25 µg/ml
  (%) ABTS inhibitions: 57.40 ± 0.76^∗∗∗ %
ABTS scavenging activity; 62.50 µg/ml
  (%) ABTS inhibitions: 61.35 ± 0.51^∗∗∗ %
ABTS scavenging activity; 125 µg/ml
  (%) ABTS inhibitions: 66.90 ± 0.96^∗∗∗ %
ABTS scavenging activity; 250 µg/ml
  (%) ABTS inhibitions: 71.08 ± 0.47^∗∗∗ %
ABTS scavenging activity; 500 µg/ml
  (%) ABTS inhibitions: 76.85 ± 2.24^∗∗∗ %
DPPH scavenging activity
  IC50 (DPPH): 12.81 µg/mL (≈ 44.9 µM)
DPPH scavenging activity; 31.25 µg/ml
  (%) DPPH inhibitions: 56.65 ± 1.34^∗∗∗ %
DPPH scavenging activity; 62.50 µg/ml
  (%) DPPH inhibitions: 61.58 ± 1.12^∗∗∗ %
DPPH scavenging activity; 125 µg/ml
  (%) DPPH inhibitions: 66.40 ± 0.25^∗∗∗ %
DPPH scavenging activity; 250 µg/ml
  (%) DPPH inhibitions: 71.67 ± 1.20^∗∗∗ %
DPPH scavenging activity; 500 µg/ml
  (%) DPPH inhibitions: 75.09 ± 0.32^∗∗∗ %
α-amylase
  IC50 (α-amylase): 15.34 µg/mL (≈ 53.8 µM)
α-amylase; 31.25 µg/ml
  % inhibitions (α-amylase): 55.85 ± 0.17^∗∗∗ %
α-amylase; 62.50 µg/ml
  % inhibitions (α-amylase): 63.72 ± 0.11^∗∗∗ %
α-amylase; 125 µg/ml
  % inhibitions (α-amylase): 67.44 ± 0.15^∗∗∗ %
α-amylase; 250 µg/ml
  % inhibitions (α-amylase): 73.14 ± 0.49^∗∗∗ %
α-amylase; 500 µg/ml
  % inhibitions (α-amylase): 78.69 ± 0.14^∗∗∗ %
mice
  OGTT blood glucose, 0 minutes: 163.7 mg/dL
  OGTT blood glucose, 30 minutes: 189.2 mg/dL
  OGTT blood glucose, 60 minutes: 214.8 mg/dL
  OGTT blood glucose, 120 minutes: 151.4 mg/dL
α-glucosidase
  IC50 (α-glucosidase): 10.81 µg/mL (≈ 37.9 µM)
α-glucosidase; 31.25 µg/ml
  % inhibitions (α-glucosidase): 62.44 ± 0.55^∗∗ %
α-glucosidase; 62.50 µg/ml
  % inhibitions (α-glucosidase): 68.47 ± 0.52^∗∗∗ %
α-glucosidase; 125 µg/ml
  % inhibitions (α-glucosidase): 74.39 ± 0.49^∗∗∗ %
α-glucosidase; 250 µg/ml
  % inhibitions (α-glucosidase): 81.34 ± 0.55^∗ %
α-glucosidase; 500 µg/ml
  % inhibitions (α-glucosidase): 87.36 ± 0.49^∗ %
[1]; dose 31.25 μg/kg
  Change in body weight: −6.8 Gm
  Decrease in blood glucose after 15 days: 35 mg/dL
  Blood glucose level, 0 day: 452 mg/dL
  Blood glucose level, 4th day: 448 mg/dL
  Blood glucose level, 7th day: 431 mg/dL
  Blood glucose level, 10th day: 425 mg/dL
  Blood glucose level, 15th day: 417 mg/dL
[1]; dose 62.5 μg/kg
  Change in body weight: −4.6 Gm
  Decrease in blood glucose after 15 days: 58 mg/dL
  Blood glucose level, 0 day: 386 mg/dL
  Blood glucose level, 4th day: 359 mg/dL
  Blood glucose level, 7th day: 349 mg/dL
  Blood glucose level, 10th day: 336 mg/dL
  Blood glucose level, 15th day: 328 mg/dL
[1]; dose 125 μg/kg
  Change in body weight: −3.7 Gm
  Decrease in blood glucose after 15 days: 68 mg/dL
  Blood glucose level, 0 day: 437 mg/dL
  Blood glucose level, 4th day: 431 mg/dL
  Blood glucose level, 7th day: 422 mg/dL
  Blood glucose level, 10th day: 394 mg/dL
  Blood glucose level, 15th day: 369 mg/dL
[1]; dose 250 μg/kg
  Change in body weight: +3.4 Gm
  Decrease in blood glucose after 15 days: 111 mg/dL
  Blood glucose level, 0 day: 466 mg/dL
  Blood glucose level, 4th day: 461 mg/dL
  Blood glucose level, 7th day: 443 mg/dL
  Blood glucose level, 10th day: 407 mg/dL
  Blood glucose level, 15th day: 355 mg/dL
[1]; dose 500 μg/kg
  Change in body weight: +7.4 Gm
  Decrease in blood glucose after 15 days: 199 mg/dL
  Blood glucose level, 0 day: 456 mg/dL
  Blood glucose level, 4th day: 402 mg/dL
  Blood glucose level, 7th day: 361 mg/dL
  Blood glucose level, 10th day: 303 mg/dL
  Blood glucose level, 15th day: 257 mg/dL
